Legend:
[1] = CC50 MT4 cytotoxicity (Cell-Titer Glo); format: cell-based; conditions: human
Procedure, shortened: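 Uninfected MT-4 and HEp-2 cells cultured 4-5 days at 37° C with 3-fold serially diluted compound (15 nM to 100,000 nM). Viability read by Cell-Titer Glo luminescence; untreated and 2 μM puromycin wells set 100% and 0%. CC50 from non-linear regression as concentration reducing viability by 50%.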

[2] = Plasma stability; format: in vitro ADME; parameters: unit not given here; conditions: 37° C., 2 μM substrate
Procedure, shortened: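 Reaction mixture was sampled at 0.05, 0.5, 1, 2, 3 and 4 hr into quench solution containing internal standard, then centrifuged and diluted with water. Remaining analyte was measured by LC-MS on a Q-Exactive using a formic acid/acetonitrile gradient, with 5 ppm mass tolerance.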

[3] = tested on: Caco-2 cells (clone C2BBe1); assay: CACO-2 permeability; format: in vitro ADME; parameters: unit not given here; conditions: for DM Caco2 A to B: apical to basolateral, donor pH 6.5, receiver pH 7.4; for DM Caco2 B to A: basolateral to apical
Procedure, shortened: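 Caco-2 monolayers grown 21 days on collagen-coated transwells and checked for integrity by TEER. Donor buffer was HBSS/HEPES/glucose pH 6.5 with 200 μM BNPP; receiver was pH 7.4 with BSA. Compounds were dosed apically or basolaterally for A-to-B and B-to-A transport, with receiver sampling at 1 and 2 h, LC-MS/MS analysis and percent recovery.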

[4] = GI S9 stability - no PMSF; format: in vitro ADME; conditions: pH 7.4; human intestinal S9, PMSF-free; read-out: GIS9-HUMAN-NoPMSF T1/2
Procedure, shortened: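 Compounds were incubated at 2 μM with PMSF-free intestinal S9 (1 mg/mL protein) in 100 mM PBS, pH 7.4, sampling at 6 time points over 120 min. Parent disappearance and formation of the nucleoside metabolite Reference Compound A were quantified by LC-MS (Q-Exactive) using analyte/internal standard peak area ratios.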

[5] = tested on: SARS Coronavirus 2 recombinant with NanoLuc (SARS-CoV2-NLuc) in A549-hACE2 cells; assay: microbe, parasite or virus in culture; format: cell-based; conditions: A549; read-out: EC50 SARS CoV2 NanoLuc A549 384
[6] = physchem
[7] = tested on: Respiratory syncytial virus recombinant with luciferase (RSV-Luc5) in HEp-2 cells; assay: microbe, parasite or virus in culture; format: cell-based; conditions: human respiratory syncytial virus, HEp-2, read-out: EC50 RSVFluc-Hep2 384 V2
[8] = tested on: Respiratory syncytial virus recombinant with luciferase (RSV-Luc5) in Normal Human Bronchial Epithelial (NHBE) cells; assay: microbe, parasite or virus in culture; format: cell-based; conditions: read-out: EC50 RSVFluc-NHBE 384 V2

Compound | CC50 [1] [µM] | STA Human Plasma 37 [2] | DM Caco2 A to B [3] | DM Caco2 B to A [3] | half-life at 2 µM [4] [s] | EC50 [5] [µM] | logD [6] | EC50 [7] [µM] | EC50 [8] [µM]
CC1(COC(=O)OC[C@H]2O[C@@](C#N)(c3ccc4c(N)ncnn34)[C@H](O)[C@@H]2O)CC1 [Compound 114, ((2R,3S,4R,5R)-5-(4-aminopyrrolo[2,1-f][1,2,4]triazin-7-yl)-5-cyano-3,4-dihydroxytetrahydrofuran-2-yl)methyl ((1-methylcyclopropyl)methyl) carbonate] | > 50 | 26.8 | 2.07 | 11.26 | 72.7 | 1.12 | 1.5 | 0.123 | 0.966
N#CC12CC(COC(=O)OC[C@H]3O[C@@](C#N)(c4ccc5c(N)ncnn45)[C@H](O)[C@@H]3O)(C1)C2 [Compound 121, ((2R,3S,4R,5R)-5-(4-aminopyrrolo[2,1-f][1,2,4]triazin-7-yl)-5-cyano-3,4-dihydroxytetrahydrofuran-2-yl)methyl ((3-cyanobicyclo[1.1.1]pentan-1-yl)methyl) carbonate] | > 50 | 107.7 | 0.08 | 4.15 | 95 | 7.97 | 1.1 | 1.51 | 1.56
N#C[C@@]1(c2ccc3c(N)ncnn23)O[C@H](COC(=O)OCC2CC(F)(F)C2)[C@@H](O)[C@H]1O [Compound 115, ((2R,3S,4R,5R)-5-(4-aminopyrrolo[2,1-f][1,2,4]triazin-7-yl)-5-cyano-3,4-dihydroxytetrahydrofuran-2-yl)methyl ((3,3-difluorocyclobutyl)methyl) carbonate] | > 50 | 41.2 | 0.91 | 8.32 | 34.9 | 1.76 | 1.4 | 0.228 | 0.99
N#CCC1(COC(=O)OC[C@H]2O[C@@](C#N)(c3ccc4c(N)ncnn34)[C@H](O)[C@@H]2O)CC1 [Compound 119, ((2R,3S,4R,5R)-5-(4-aminopyrrolo[2,1-f][1,2,4]triazin-7-yl)-5-cyano-3,4-dihydroxytetrahydrofuran-2-yl)methyl ((1-(cyanomethyl)cyclopropyl)methyl) carbonate] | > 50 | 40.7 | 0.07 | 1.91 | 179 | 8.82 | 0.9 | 2.2 | 2.19
CC1(C)CC(COC(=O)OC[C@H]2O[C@@](C#N)(c3ccc4c(N)ncnn34)[C@H](O)[C@@H]2O)C1 [Compound 117, ((2R,3S,4R,5R)-5-(4-aminopyrrolo[2,1-f][1,2,4]triazin-7-yl)-5-cyano-3,4-dihydroxytetrahydrofuran-2-yl)methyl ((3,3-dimethylcyclobutyl)methyl) carbonate] | > 50 | 86 | 6.18 | 10.53 | 37 | 0.778 | 2.3 | 0.494 | 1.38
CCCCCCCCCCOC(=O)OC[C@H]1O[C@@](C#N)(c2ccc3c(N)ncnn23)[C@H](O)[C@@H]1O [Compound 124, ((2R,3S,4R,5R)-5-(4-aminopyrrolo[2,1-f][1,2,4]triazin-7-yl)-5-cyano-3,4-dihydroxytetrahydrofuran-2-yl)methyl decyl carbonate] | 27.6 | 192.3 | 0.08 | 7.35 | 44.6 | 1.14 | 3.7 | 0.723 | 0.625
CC1(COC(=O)OC[C@H]2O[C@@](C#N)(c3ccc4c(N)ncnn34)[C@H](O)[C@@H]2O)CCCC1 [Compound 123, ((2R,3S,4R,5R)-5-(4-aminopyrrolo[2,1-f][1,2,4]triazin-7-yl)-5-cyano-3,4-dihydroxytetrahydrofuran-2-yl)methyl ((1-methylcyclopentyl)methyl) carbonate] | > 50 | 96.5 | 3.18 | 9.88 | 36.9 | 1.16 | 2.2 | 0.72 | 1.81
CC1(COC(=O)OC[C@H]2O[C@@](C#N)(c3ccc4c(N)ncnn34)[C@H](O)[C@@H]2O)CCC1 [Compound 122, ((2R,3S,4R,5R)-5-(4-aminopyrrolo[2,1-f][1,2,4]triazin-7-yl)-5-cyano-3,4-dihydroxytetrahydrofuran-2-yl)methyl ((1-methylcyclobutyl)methyl) carbonate] | > 50 | 34.1 | – | – | 38.2 | 0.707 | 1.9 | 0.29 | 1.04
N#C[C@@]1(c2ccc3c(N)ncnn23)O[C@H](COC(=O)OCC2(c3ccccc3)CC2)[C@@H](O)[C@H]1O [Compound 116, ((2R,3S,4R,5R)-5-(4-aminopyrrolo[2,1-f][1,2,4]triazin-7-yl)-5-cyano-3,4-dihydroxytetrahydrofuran-2-yl)methyl ((1-phenylcyclopropyl)methyl) carbonate] | > 50 | 26.4 | 4.18 | 17.53 | 37.8 | 0.822 | 2.1 | 0.321 | 0.864
COc1ccc(CCOC(=O)OC[C@H]2O[C@@](C#N)(c3ccc4c(N)ncnn34)[C@H](O)[C@@H]2O)cc1 [Compound 112, ((2R,3S,4R,5R)-5-(4-aminopyrrolo[2,1-f][1,2,4]triazin-7-yl)-5-cyano-3,4-dihydroxytetrahydrofuran-2-yl)methyl (4-methoxyphenethyl) carbonate] | > 50 | 28.8 | 2.53 | 15.81 | 106 | 2.11 | 1.8 | 0.181 | 0.454
N#C[C@@]1(c2ccc3c(N)ncnn23)O[C@H](COC(=O)OCC2CC2)[C@@H](O)[C@H]1O [Compound 125, ((2R,3S,4R,5R)-5-(4-aminopyrrolo[2,1-f][1,2,4]triazin-7-yl)-5-cyano-3,4-dihydroxytetrahydrofuran-2-yl)methyl (cyclopropylmethyl) carbonate] | > 50 | 12.2 | – | – | 34.9 | 1.79 | 1.1 | 0.22 | 0.645
N#C[C@@]1(c2ccc3c(N)ncnn23)O[C@H](COC(=O)OC23CC4CC(CC(C4)C2)C3)[C@@H](O)[C@H]1O [Compound 154, (3S,5S,7S)-adamantan-1-yl (((2R,3S,4R,5R)-5-(4-aminopyrrolo[2,1-f][1,2,4]-triazin-7-yl)-5-cyano-3,4-dihydroxytetrahydrofuran-2-yl)methyl) carbonate] | > 50 | 1584 | 2.08 | 14.67 | 16700 | 34 | 2.6 | 11.7 | 11
N#C[C@@]1(c2ccc3c(N)ncnn23)O[C@H](COC(=O)OCC2(C(F)(F)F)CC2)[C@@H](O)[C@H]1O [Compound 120, ((2R,3S,4R,5R)-5-(4-aminopyrrolo[2,1-f][1,2,4]triazin-7-yl)-5-cyano-3,4-dihydroxytetrahydrofuran-2-yl)methyl ((1-(trifluoromethyl)cyclopropyl)methyl) carbonate] | > 50 | 38.7 | 0.77 | 8.35 | 36.3 | 1.41 | 1.6 | 0.816 | 1.26
N#CC1(COC(=O)OC[C@H]2O[C@@](C#N)(c3ccc4c(N)ncnn34)[C@H](O)[C@@H]2O)CC1 [Compound 118, ((2R,3S,4R,5R)-5-(4-aminopyrrolo[2,1-f][1,2,4]triazin-7-yl)-5-cyano-3,4-dihydroxytetrahydrofuran-2-yl)methyl ((l-cyanocyclopropyl)methyl) carbonate] | > 50 | 59.4 | 0.07 | 1.67 | 247 | 6.8 | 0.7 | 1.76 | 1.82
